# Reference: ChEMBL document CHEMBL3045914, “Response of dry bean to pre-plant incorporated and pre-emergence applications of S-metolachlor and fomesafen” (Crop Prot, 2009)
# Legend:
# Type in all cases: organism-based
# [1] = system: Phaseolus vulgaris; test: Toxicity in Phaseolus vulgaris (dry bean)assessed as visible injury on leaves at 280 to 560 g a.i. ha'-1 after 14 days; settings: in vivo, 336 h
# [2] = system: Phaseolus vulgaris; test: Toxicity in Phaseolus vulgaris (black dry bean) assessed as visible injury on leaves at 2 times recommended dose treated at pre-plant incorporated application after 14 days; settings: in vivo, other, 336 h
# [3] = system: Phaseolus vulgaris; test: Toxicity in Phaseolus vulgaris (cranberry dry bean) assessed as visible injury on leaves at 2 times recommended dose treated at pre-emergence application after 14 days; settings: in vivo, other, 336 h
# [4] = system: Phaseolus vulgaris; test: Toxicity in Phaseolus vulgaris (dry bean) assessed as shoot dry weight per row at 280 to 560 g a.i. ha'-1; settings: in vivo
# [5] = system: Phaseolus vulgaris; test: Toxicity in Phaseolus vulgaris (cranberry dry bean) assessed as visible injury on leaves at recommended dose treated at pre-emergence application after 14 days; settings: in vivo, other, 336 h
# [6] = system: Phaseolus vulgaris; test: Toxicity in Phaseolus vulgaris (kidney dry bean) assessed as visible injury on leaves at 2 times recommended dose treated at pre-emergence application after 14 days; settings: in vivo, other, 336 h
# [7] = system: Phaseolus vulgaris; test: Toxicity in Phaseolus vulgaris (white dry bean) assessed as visible injury on leaves at 2 times recommended dose treated at pre-emergence application after 14 days; settings: in vivo, other, 336 h
# [8] = system: Phaseolus vulgaris; test: Toxicity in Phaseolus vulgaris (cranberry dry bean) assessed as visible injury on leaves at 2 times recommended dose treated at pre-plant incorporated application after 14 days; settings: in vivo, other, 336 h
# [9] = system: Phaseolus vulgaris; test: Toxicity in Phaseolus vulgaris (dry bean) assessed as visible injury on leaves at 280 to 560 g a.i. ha'-1 after 28 days; settings: in vivo, 672 h
# [10] = system: Phaseolus vulgaris; test: Toxicity in Phaseolus vulgaris (black dry bean) assessed as visible injury on leaves at recommended dose treated at pre-emergence application after 14 days; settings: in vivo, other, 336 h
# [11] = system: Phaseolus vulgaris; test: Toxicity in Phaseolus vulgaris (cranberry dry bean) assessed as visible injury on leaves at recommended dose treated at pre-plant incorporated application after 14 days; settings: in vivo, other, 336 h
# [12] = system: Phaseolus vulgaris; test: Toxicity in Phaseolus vulgaris (kidney dry bean) assessed as visible injury on leaves at recommended dose treated at pre-emergence application after 14 days; settings: in vivo, other, 336 h
# [13] = system: Phaseolus vulgaris; test: Toxicity in Phaseolus vulgaris (black dry bean) assessed as visible injury on leaves at recommended dose treated at pre-plant incorporated application after 14 days; settings: in vivo, other, 336 h
# [14] = system: Phaseolus vulgaris; test: Toxicity in Phaseolus vulgaris (dry bean)assessed as visible injury on leaves at 280 to 560 g a.i. ha'-1 after 7 days; settings: in vivo, 168 h
# [15] = system: Phaseolus vulgaris; test: Toxicity in Phaseolus vulgaris (black dry bean) assessed as visible injury on leaves at 2 times recommended dose treated at pre-emergence application after 14 days; settings: in vivo, other, 336 h
# [16] = system: Phaseolus vulgaris; test: Toxicity in Phaseolus vulgaris (white dry bean) assessed as visible injury on leaves at recommended dose treated at pre-plant incorporated application after 14 days; settings: in vivo, other, 336 h
# [17] = system: Phaseolus vulgaris; test: Toxicity in Phaseolus vulgaris (white dry bean) assessed as visible injury on leaves at recommended dose treated at pre-emergence application after 14 days; settings: in vivo, other, 336 h
# [18] = system: Phaseolus vulgaris; test: Toxicity in Phaseolus vulgaris (dry bean) assessed as yield at 280 to 560 g a.i. ha'-1; settings: in vivo
# [19] = system: Phaseolus vulgaris; test: Toxicity in Phaseolus vulgaris (white dry bean) assessed as visible injury on leaves at 2 times recommended dose treated at pre-plant incorporated application after 14 days; settings: in vivo, other, 336 h
# [20] = system: Phaseolus vulgaris; test: Toxicity in Phaseolus vulgaris (kidney dry bean) assessed as visible injury on leaves at 2 times recommended dose treated at pre-plant incorporated application after 14 days; settings: in vivo, other, 336 h
# [21] = system: Phaseolus vulgaris; test: Toxicity in Phaseolus vulgaris (dry bean) assessed as plant height at 280 to 560 g a.i. ha'-1; settings: in vivo
# [22] = system: Phaseolus vulgaris; test: Toxicity in Phaseolus vulgaris (kidney dry bean) assessed as visible injury on leaves at recommended dose treated at pre-plant incorporated application after 14 days; settings: in vivo, other, 336 h
# [23] = system: Phaseolus vulgaris; test: Toxicity in Phaseolus vulgaris (dry bean) assessed as plant height at 1373 to 2746 g a.i. ha'-1; settings: in vivo
# [24] = system: Phaseolus vulgaris; test: Toxicity in Phaseolus vulgaris (dry bean) assessed as visible injury on leaves at 1373 to 2746 g a.i. ha'-1 after 28 days; settings: in vivo, 672 h
# [25] = system: Phaseolus vulgaris; test: Toxicity in Phaseolus vulgaris (dry bean) assessed as visible injury on leaves at 1373 to 2746 g a.i. ha'-1 after 7 days; settings: in vivo, 168 h
# [26] = system: Phaseolus vulgaris; test: Toxicity in Phaseolus vulgaris (dry bean) assessed as shoot dry weight per row at 1373 to 2746 g a.i. ha'-1; settings: in vivo
# [27] = system: Phaseolus vulgaris; test: Toxicity in Phaseolus vulgaris (dry bean) assessed as visible injury on leaves at 1373 to 2746 g a.i. ha'-1 after 14 days; settings: in vivo, 336 h
# [28] = system: Phaseolus vulgaris; test: Toxicity in Phaseolus vulgaris (dry bean) assessed as yield at 1373 to 2746 g a.i. ha'-1; settings: in vivo
SMILES,Activity [2] [%],Activity [3] [%],Activity [5] [%],Activity [6] [%],Activity [7] [%],Activity [8] [%],Activity [10] [%],Activity [11] [%],Activity [12] [%],Activity [13] [%],Activity [15] [%],Activity [16] [%],Activity [17] [%],Activity [19] [%],Activity [20] [%],Activity [22] [%],further results
CS(=O)(=O)NC(=O)c1cc(Oc2ccc(C(F)(F)F)cc2Cl)ccc1[N+](=O)[O-] [FOMESAFEN],0.5,0,0,0.2,0.4,0,1,0.1,0,0.8,1.2,0.5,0.1,0.2,0.2,0.3,Activity [1]: 0.2%; Activity [4]: 40 g; Activity [9]: 0%; Activity [14]: 0.2%; Crop_yield [18]: 2.4 tons/ha; Activity [21]: 49 cm
CCc1cccc(C)c1N(C(=O)CCl)[C@@H](C)COC [S-METOLACHLOR],0.7,0.1,0,0.1,6.6,0.2,3.4,0.1,0,0.9,5.5,0.5,4.2,1.6,0.7,0.1,Activity [23]: 49 cm; Activity [24]: 0.2%; Activity [25]: 0.7%; Activity [26]: 39 g; Activity [27]: 1%; Crop_yield [28]: 2.4 tons/ha
